Test results as given in ChEMBL document CHEMBL3124795, “Synthesis and antiproliferative evaluation of 13-aryl-13H-benzo[g]benzothiazolo [2,3-b]quinazoline-5,14-diones” (Bioorg Med Chem Lett, 2014).

Experiments:
HEK293 = assay: Antiproliferative activity against human HEK293 cells after 48 hrs by MTT assay; assay type: cell-based; details: HEK293, 48 h
HeLa = assay: Antiproliferative activity against human HeLa cells after 48 hrs by MTT assay; assay type: functional, cell-based
HepG2 = assay: Antiproliferative activity against human HepG2 cells after 48 hrs by MTT assay; assay type: functional, cell-based; details: HepG2, 48 h

| Compound | IC50 (HEK293) | IC50 (HeLa) | IC50 (HepG2) |
| --- | --- | --- | --- |
| O=C1C2=C(C(=O)c3ccccc31)C(c1ccc(F)cc1)N1C(=N2)Sc2ccccc21 (configuration not stated) | 15.1 µM | 3.96 µM | 9.4 µM |
| COc1cc(C2C3=C(N=C4Sc5ccccc5N42)C(=O)c2ccccc2C3=O)cc(OC)c1OC (configuration not stated) | 11 µM | 9.32 µM | 5.03 µM |
| O=C1C2=C(C(=O)c3ccccc31)C(c1ccccc1)N1C(=N2)Sc2ccccc21 (configuration not stated) | 4.16 µM | 2.99 µM | 1.66 µM |
| O=C1C2=C(C(=O)c3ccccc31)C(c1ccco1)N1C(=N2)Sc2ccccc21 (configuration not stated) | 10.1 µM | 6.62 µM | 9.07 µM |
| O=C1C2=C(C(=O)c3ccccc31)C(c1ccc(Cl)cc1)N1C(=N2)Sc2ccccc21 (configuration not stated) | 25.9 µM | 15.6 µM | 23.4 µM |
| Cc1ccc(C2C3=C(N=C4Sc5ccccc5N42)C(=O)c2ccccc2C3=O)cc1 (configuration not stated) | 5.18 µM | 3.81 µM | 1.7 µM |
| COc1cccc2c1C(=O)c1c(O)c3c(c(O)c1C2=O)C[C@@](O)(C(=O)CO)C[C@@H]3O[C@H]1C[C@H](N)[C@H](O)[C@H](C)O1 [DOXORUBICIN] | 1.06 µM | – | 1.15 µM |
| O=C1C2=C(C(=O)c3ccccc31)C(c1ccc(Cl)cc1Cl)N1C(=N2)Sc2ccccc21 (configuration not stated) | 4.9 µM | 2.68 µM | 3.56 µM |
| O=C1C2=C(C(=O)c3ccccc31)C(c1cccs1)N1C(=N2)Sc2ccccc21 (configuration not stated) | 5.9 µM | 4.23 µM | 5.76 µM |
| COc1ccc(OC)c(C2C3=C(N=C4Sc5ccccc5N42)C(=O)c2ccccc2C3=O)c1 (configuration not stated) | > 200 µM | 125 µM | 190 µM |
| O=C1C2=C(C(=O)c3ccccc31)C(c1ccc([N+](=O)[O-])cc1)N1C(=N2)Sc2ccccc21 (configuration not stated) | 50.3 µM | 29 µM | 14.3 µM |
